# From patent publication US7273723B2, “Antibiotic-based gene regulation system” (priority 2001, dated 2007)
# Tested on: MphR(A) or MphR(A)-NLS / plant promoters PETRpON4, PETRpON8
# Assay: EpON erythromycin-inducible GUS expression in Nicotiana tabacum SR1 suspension cells
# Type: cell-based
# Conditions: 250 μg/ml erythromycin
# Method: The transformation protocol of SR1 cells was adapted from Wu and Feng (1999, Plant Cell Reports 18: 381-386). In brief, 200 mg of exponentially growing SR1 cells were harvested by centrifugation. The cells were incubated for 15 min. in 2% DMSO and washed twice in fresh medium. Cells were subsequently resuspended in electroporation buffer (5 mM CaCl2; 10 mM NaCl2; 0.4 M sucrose; 8.7% glycerol; 4 mM ascorbate; 10 mM HEPES; pH 6.8) and mixed with desired DNA at a concentration of 0.2 μg/μl. The cell-DNA mixture was incubated for 10 min. on ice electroporated at 700 V/cm and 980 μF using a BioRad Gene Pulser and appropriate cuvettes. Following electroporation, cells were kept on ice for 10 min. and deplasmolyzed by 4 subsequent additions of 100 μl LS medium at 5 min. intervals. Transformation rates 20%±5% are typically reached with SR1 cells using this modified protocol.
# Transformed SR1 cells were incubated at 25° C. for 48 h while rocking at 110 rpm. […] Cells were lysed in extraction buffer (50 mM NaH2PO4; 10 mM EDTA; 0.1% Triton X-100; 0.1% sodium lauryl sarcosine; 10 mM β-mercaptoethanol; pH 7.0) by freezing them in liquid nitrogen and grinding them using a micropestle. Soluble protein extract was collected by centrifugation for 20 min. at 15,000 rpm and 4° C. Protein concentration of plant extracts was determined using a Bradford assay (Bradford, 1976, Anal. Biochem. 72: 248-254). The GUS expression assay was performed following a modified protocol by Jefferson et al. (1987; EMBO J. 6: 3901-3907). In brief, 100 μl of cell extract were incubated in extraction buffer (see above) also containing 1 mM of the β-glucuronidase substrate 4-methylumbelliferyl glucuronide (MUG; Duchefa, NL). The reaction mixture was incubated at 37° C. and 100 μl aliquots were removed at appropriate time intervals and the reaction stopped by addition of 1.9 ml of 0.2 M K2CO3. The fluorescence time course was determined using typical 365 nm/455 nm excitation/emission profiles and a Shimadzu RF-5001 PC spectrofluorophotometer.
# For regulated expression in transgenic plants and plant tissue culture an inducible rather than a repressible gene regulation system would be desirable. This enables induction of transgene […] by addition of the antibiotic rather than by its withdrawal. We therefore constructed an erythromycin-inducible plant gene regulation system (EpON) which consisted of the E. coli MphR(A) repressor protein (SEQ ID NO: 4) which binds, in the absence of macrolide antibiotics, to the ETR binding module cloned downstream of a strong constitutive plant promoter (PCaMV35S). Binding of MphR(A) to the ETR module blocks PCaMV35S-mediated target gene expression. […]
smiles,measurement,setting,value
CC[C@H]1OC(=O)[C@H](C)[C@@H](O[C@H]2C[C@@](C)(OC)[C@@H](O)[C@H](C)O2)[C@H](C)[C@@H](O[C@@H]2O[C@H](C)C[C@H](N(C)C)[C@H]2O)[C@](C)(O)C[C@@H](C)C(=O)[C@H](C)[C@@H](O)[C@]1(C)O [Erythromycin],GUS activity upon addition of erythromycin,pBP8/pBP15 (MphR(A)-NLS / PETRpON4),313.5±39.6 pmoles 4-MU min^−1 mg^−1 protein^−1
same,GUS activity upon addition of erythromycin,pBP8/pBP35 (MphR(A)-NLS / PETRpON8),283.6±24.7 pmoles 4-MU min^−1 mg^−1 protein^−1
same,GUS activity upon addition of erythromycin,pBP9/pBP15 (MphR(A) / PETRpON4),305.2±24.9 pmoles 4-MU min^−1 mg^−1 protein^−1
same,GUS activity upon addition of erythromycin,pBP9/pBP35 (MphR(A) / PETRpON8),276.7±34.1 pmoles 4-MU min^−1 mg^−1 protein^−1
